Assay results from PubChem BioAssay (NCI).
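Step 1: Grow cells in 96-well plates. Step 2: Expose to compound for 48 hours at 5 concentrations. Step 3: Interpolate endpoints linearly; if unreached, use highest concentration. Abbreviation: GI50, concentration required for 50% inhibition of growth. TGI denotes the concentration required for complete inhibition of growth.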

How the values were obtained:
Experiment in all cases: NCI anticancer screen, dose series, 48 h
M14 melanoma = system: M14 melanoma
NCI/ADR-RES ovarian = system: NCI/ADR-RES ovarian
HCC-2998 colon = system: HCC-2998 colon
HS 578T breast = system: HS 578T breast
IGROV1 ovarian = system: IGROV1 ovarian
SNB-75 CNS = system: SNB-75 CNS
RXF 393 renal = system: RXF 393 renal
RPMI-8226 leukemia = system: RPMI-8226 leukemia
SF-539 CNS = system: SF-539 CNS
HT29 colon = system: HT29 colon
TK-10 renal = system: TK-10 renal
HCT-116 colon = system: HCT-116 colon
786-0 renal = system: 786-0 renal
OVCAR-3 ovarian = system: OVCAR-3 ovarian
SR leukemia = system: SR leukemia
MDA-MB-435 = system: MDA-MB-435
BT-549 breast = system: BT-549 breast
UO-31 renal = system: UO-31 renal
SW-620 colon = system: SW-620 colon
A498 renal = system: A498 renal
SF-295 CNS = system: SF-295 CNS
HL-60(TB) leukemia = system: HL-60(TB) leukemia
HCT-15 colon = system: HCT-15 colon
PC-3 prostate = system: PC-3 prostate
K-562 leukemia = system: K-562 leukemia
MOLT-4 leukemia = system: MOLT-4 leukemia
NCI-H226 lung = system: NCI-H226 lung
OVCAR-5 ovarian = system: OVCAR-5 ovarian
SF-268 CNS = system: SF-268 CNS
U251 CNS = system: U251 CNS
MALME-3M melanoma = system: MALME-3M melanoma
SK-MEL-5 melanoma = system: SK-MEL-5 melanoma
SNB-19 CNS = system: SNB-19 CNS
OVCAR-8 ovarian = system: OVCAR-8 ovarian
HOP-62 NSCLC = system: HOP-62 NSCLC
HOP-92 NSCLC = system: HOP-92 NSCLC
SK-OV-3 ovarian = system: SK-OV-3 ovarian
CAKI-1 renal = system: CAKI-1 renal
MCF7 breast = system: MCF7 breast
NCI-H23 lung = system: NCI-H23 lung
KM12 colon = system: KM12 colon
COLO 205 colon = system: COLO 205 colon
SK-MEL-2 melanoma = system: SK-MEL-2 melanoma
MDA-MB-231 breast = system: MDA-MB-231 breast
LOX IMVI melanoma = system: LOX IMVI melanoma
UACC-62 melanoma = system: UACC-62 melanoma
SK-MEL-28 melanoma = system: SK-MEL-28 melanoma
T-47D breast = system: T-47D breast
DU-145 prostate = system: DU-145 prostate
OVCAR-4 ovarian = system: OVCAR-4 ovarian
NCI-H460 lung = system: NCI-H460 lung
SN12C renal = system: SN12C renal
ACHN renal = system: ACHN renal

C/C(=N\NC(=O)c1ccccc1N)c1ccccc1O
GI50 (M14 melanoma): 4.29 µM | TGI (M14 melanoma): 57.5 µM | GI50 (NCI/ADR-RES ovarian): 4.52 µM | TGI (NCI/ADR-RES ovarian): > 100 µM | GI50 (HCC-2998 colon): 5.8 µM | TGI (HCC-2998 colon): > 100 µM | GI50 (HS 578T breast): 16.7 µM | TGI (HS 578T breast): > 100 µM | GI50 (IGROV1 ovarian): 3.56 µM | TGI (IGROV1 ovarian): > 100 µM | GI50 (SNB-75 CNS): > 100 µM | TGI (SNB-75 CNS): > 100 µM | GI50 (RXF 393 renal): 11.2 µM | TGI (RXF 393 renal): > 100 µM | GI50 (RPMI-8226 leukemia): 9.51 µM | TGI (RPMI-8226 leukemia): > 100 µM | GI50 (SF-539 CNS): 3.26 µM | TGI (SF-539 CNS): > 100 µM | GI50 (HT29 colon): 8.58 µM | TGI (HT29 colon): > 100 µM | GI50 (TK-10 renal): 1.5 µM | TGI (TK-10 renal): > 100 µM | GI50 (HCT-116 colon): 2.4 µM | TGI (HCT-116 colon): > 100 µM | GI50 (786-0 renal): 5.37 µM | TGI (786-0 renal): 80.4 µM | GI50 (OVCAR-3 ovarian): 2.79 µM | TGI (OVCAR-3 ovarian): > 100 µM | GI50 (SR leukemia): 2.83 µM | TGI (SR leukemia): 66.6 µM | GI50 (MDA-MB-435): 8.53 µM | TGI (MDA-MB-435): > 100 µM | GI50 (BT-549 breast): 14.9 µM | TGI (BT-549 breast): > 100 µM | GI50 (UO-31 renal): 1.94 µM | TGI (UO-31 renal): > 100 µM | GI50 (SW-620 colon): 5.05 µM | TGI (SW-620 colon): > 100 µM | GI50 (A498 renal): 10.4 µM | TGI (A498 renal): > 100 µM | GI50 (SF-295 CNS): 3.23 µM | TGI (SF-295 CNS): > 100 µM | GI50 (HL-60(TB) leukemia): 3.01 µM | TGI (HL-60(TB) leukemia): > 100 µM | GI50 (HCT-15 colon): 1.44 µM | TGI (HCT-15 colon): > 100 µM | GI50 (PC-3 prostate): 6.95 µM | TGI (PC-3 prostate): > 100 µM | GI50 (K-562 leukemia): 3.72 µM | TGI (K-562 leukemia): > 100 µM | GI50 (MOLT-4 leukemia): 3.17 µM | TGI (MOLT-4 leukemia): > 100 µM | GI50 (NCI-H226 lung): 5.14 µM | TGI (NCI-H226 lung): > 100 µM | GI50 (OVCAR-5 ovarian): 4.45 µM | TGI (OVCAR-5 ovarian): > 100 µM | GI50 (SF-268 CNS): 3.05 µM | TGI (SF-268 CNS): > 100 µM | GI50 (U251 CNS): 2.21 µM | TGI (U251 CNS): > 100 µM | GI50 (MALME-3M melanoma): 19.4 µM | TGI (MALME-3M melanoma): > 100 µM | GI50 (SK-MEL-5 melanoma): 3.83 µM | TGI (SK-MEL-5 melanoma): 57.7 µM | GI50 (SNB-19 CNS): 9.72 µM | TGI (SNB-19 CNS): > 100 µM | GI50 (OVCAR-8 ovarian): 3.16 µM | TGI (OVCAR-8 ovarian): > 100 µM | GI50 (HOP-62 NSCLC): 4.4 µM | TGI (HOP-62 NSCLC): > 100 µM | GI50 (HOP-92 NSCLC): 24.7 µM | TGI (HOP-92 NSCLC): > 100 µM | GI50 (SK-OV-3 ovarian): 13.4 µM | TGI (SK-OV-3 ovarian): > 100 µM | GI50 (CAKI-1 renal): 2.34 µM | TGI (CAKI-1 renal): > 100 µM | GI50 (MCF7 breast): 2.71 µM | TGI (MCF7 breast): > 100 µM | GI50 (NCI-H23 lung): 7.33 µM | TGI (NCI-H23 lung): > 100 µM | GI50 (KM12 colon): 3.92 µM | TGI (KM12 colon): > 100 µM | GI50 (COLO 205 colon): 3.23 µM | TGI (COLO 205 colon): > 100 µM | GI50 (SK-MEL-2 melanoma): 12.5 µM | TGI (SK-MEL-2 melanoma): > 100 µM | GI50 (MDA-MB-231 breast): 5.24 µM | TGI (MDA-MB-231 breast): > 100 µM | GI50 (LOX IMVI melanoma): 4.09 µM | TGI (LOX IMVI melanoma): > 100 µM | GI50 (UACC-62 melanoma): 3.39 µM | TGI (UACC-62 melanoma): 47.5 µM | GI50 (SK-MEL-28 melanoma): 8.44 µM | TGI (SK-MEL-28 melanoma): > 100 µM | GI50 (T-47D breast): 2.6 µM | TGI (T-47D breast): > 100 µM | GI50 (DU-145 prostate): 4.67 µM | TGI (DU-145 prostate): > 100 µM | GI50 (OVCAR-4 ovarian): 2.14 µM | TGI (OVCAR-4 ovarian): > 100 µM | GI50 (NCI-H460 lung): 1.65 µM | TGI (NCI-H460 lung): > 100 µM | GI50 (SN12C renal): 5.25 µM | TGI (SN12C renal): > 100 µM | GI50 (ACHN renal): 2.63 µM | TGI (ACHN renal): > 100 µM
